Measurements taken from PubChem BioAssay AID248 (DTP/NCI, 2004).
Where “and” joins values, the source holds several entries; their conditions need not be identical. Equal values may be shown once. Inconclusive results and toxic doses are left out. Cut-off read from the data, not from the text of the source: active = T/C of 150% or more; inactive = T/C below 125%.

Tested on: L1210 leukemia ip in BDF1 mice, survival T/C
Experiment: NCI In Vivo Anticancer Drug Screen. Data for tumor model L1210 Leukemia (intraperitoneal) in B6D2F1 (BDF1) mice
Conditions: endpoint: mean survival time, higher = longer survival
Outline: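 Tumor was transplanted into mice, which were then dosed with test compound or vehicle alone. Survival was recorded for each group, and the treated figure was expressed relative to the control figure.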

[1] = dose: 50.0 mg/kg/injection, schedule: Q01DX009 (ip), vehicle: Klucel (hydroxypropylcellulose) (HPC)
[2] = dose: 100.0 mg/kg/injection, schedule: Q01DX009 (ip), vehicle: Klucel (hydroxypropylcellulose) (HPC)
[3] = dose: 100.0 mg/kg/injection, schedule: Q04DX003 (ip), vehicle: Klucel (hydroxypropylcellulose) (HPC)
[4] = dose: 200.0 mg/kg/injection, schedule: Q04DX003 (ip), vehicle: Klucel (hydroxypropylcellulose) (HPC)
[5] = dose: 400.0 mg/kg/injection, schedule: Q04DX003 (ip), vehicle: Klucel (hydroxypropylcellulose) (HPC)
[6] = dose: 100.0 mg/kg/injection, schedule: Q01DX001 (ip), vehicle: saline
[7] = dose: 200.0 mg/kg/injection, schedule: Q01DX009 (ip), vehicle: Klucel (hydroxypropylcellulose) (HPC)
[8] = dose: 400.0 mg/kg/injection, schedule: Q01DX009 (ip), vehicle: Klucel (hydroxypropylcellulose) (HPC)
[9] = dose: 200.0 mg/kg/injection, schedule: Q01DX001 (ip), vehicle: saline
[10] = dose: 400.0 mg/kg/injection, schedule: Q01DX001 (ip), vehicle: saline
[11] = dose: 100.0 mg/kg/injection, schedule: Q01DX009 (ip), vehicle: saline with Tween-80
[12] = dose: 100.0 mg/kg/injection, schedule: Q04DX003 (ip), vehicle: saline with Tween-80
[13] = dose: 200.0 mg/kg/injection, schedule: Q01DX009 (ip), vehicle: saline with Tween-80
[14] = dose: 200.0 mg/kg/injection, schedule: Q04DX003 (ip), vehicle: saline with Tween-80
[15] = dose: 400.0 mg/kg/injection, schedule: Q01DX009 (ip), vehicle: saline with Tween-80
[16] = dose: 400.0 mg/kg/injection, schedule: Q04DX003 (ip), vehicle: saline with Tween-80
[17] = dose: 50.0 mg/kg/injection, schedule: Q01DX009 (ip), vehicle: saline
[18] = dose: 100.0 mg/kg/injection, schedule: Q01DX009 (ip), vehicle: saline
[19] = dose: 100.0 mg/kg/injection, schedule: Q04DX003 (ip), vehicle: saline
[20] = dose: 200.0 mg/kg/injection, schedule: Q01DX009 (ip), vehicle: saline
[21] = dose: 100.0 mg/kg/injection, schedule: Q01DX001 (ip), vehicle: carboxymethylcellulose (CMC)
[22] = dose: 200.0 mg/kg/injection, schedule: Q01DX001 (ip), vehicle: carboxymethylcellulose (CMC)
[23] = dose: 400.0 mg/kg/injection, schedule: Q01DX001 (ip), vehicle: carboxymethylcellulose (CMC)
[24] = dose: 200.0 mg/kg/injection, schedule: Q04DX003 (ip), vehicle: saline

Measured: T/C

CC(C)CNC(=O)CCc1ccc(N(CCCl)CCCl)cc1
inactive: [1] 109 % of control | [2] 117 % of control | [3] 120 % of control | [4] 102 % of control | [5] 112 % of control

CCCCCCCCC(=O)N1CCN(C(=O)CCCCCCCC)C1
inactive: dose: 30.0 mg/kg/injection, schedule: Q01DX001 (ip), vehicle: saline 96 % of control | [6] 96 % of control | dose: 300.0 mg/kg/injection, schedule: Q01DX001 (ip), vehicle: saline 91 % of control

COc1cc(C)c(C2NC(=O)c3ccccc3N2)cc1C (stereo not given)
inactive: [1] 95 % of control | [2] 104 % of control and 109 % of control | [3] 97 % of control | dose: 150.0 mg/kg/injection, schedule: Q01DX009 (ip), vehicle: Klucel (hydroxypropylcellulose) (HPC) 109 % of control | [7] 100 % of control | [4] 97 % of control | [8] 107 % of control | [5] 103 % of control

CCOC(=O)CCC1C(C#N)C2(Cl)C(Cl)=C(Cl)C1(Cl)C2(Cl)Cl (stereo not given)
inactive: [2] 98 % of control | [3] 93 % of control | [7] 98 % of control | [4] 93 % of control | [8] 96 % of control | [5] 92 % of control

O=C(C[n+]1ccccc1)c1cn(Cc2ccccc2)c2ccccc12
inactive: dose: 75.0 mg/kg/injection, schedule: Q01DX001 (ip), vehicle: other 98 % of control | dose: 150.0 mg/kg/injection, schedule: Q01DX001 (ip), vehicle: other 97 % of control

CCN(CC)Cc1nnnn1-c1ccccc1
inactive: [6] 103 % of control | [9] 97 % of control | [10] 106 % of control

CC(C)CC(N)C(N)=O (stereo not given)
inactive: dose: 12.5 mg/kg/injection, schedule: Q04DX002 (ip), vehicle: saline 107 % of control | dose: 25.0 mg/kg/injection, schedule: Q04DX002 (ip), vehicle: saline 100 % of control | dose: 50.0 mg/kg/injection, schedule: Q04DX002 (ip), vehicle: saline 107 % of control

O=C(Cl)c1cccc2c1sc1ccccc12
inactive: [11] 102 % of control | [12] 97 % of control | [13] 102 % of control | [14] 98 % of control | [15] 100 % of control | [16] 98 % of control

COc1ccc2ncc(C)c(C=O)c2c1
inactive: [2] 95 % of control | [7] 96 % of control | [8] 110 % of control

CC(c1ccccc1)n1cnc2c(=S)nc[nH]c21 (stereo not given)
inactive: [6] 92 % of control | [9] 95 % of control | [10] 103 % of control

COc1cc(Oc2ccc(OC)c(OC)c2)c(C=O)cc1Br
inactive: dose: 100.0 mg/kg/injection, schedule: Q04DX003 (ip), vehicle: acetone 96 % of control | dose: 200.0 mg/kg/injection, schedule: Q04DX003 (ip), vehicle: acetone 97 % of control | dose: 400.0 mg/kg/injection, schedule: Q04DX003 (ip), vehicle: acetone 97 % of control

CCCCCCCCCCCCC(CCCCCCCCCCCC)C1CCCCC1
inactive: [6] 102 % of control | [9] 104 % of control | [10] 95 % of control

C=CC(=O)OCC(C)(C)C
inactive: dose: 100.0 mg/kg/injection, schedule: Q04DX002 (ip), vehicle: saline 100 % of control and 103 % of control | dose: 200.0 mg/kg/injection, schedule: Q04DX002 (ip), vehicle: saline 100 % of control and 107 % of control | dose: 800.0 mg/kg/injection, schedule: Q04DX002 (ip), vehicle: saline 97 % of control

COc1cc2c(c(OC)c1OC)-c1ccc(OC)c(=O)cc1C(NC(=S)Nc1ccccc1)CC2 (stereo not given)
inactive: dose: 62.5 mg/kg/injection, schedule: Q01DX009 (ip), vehicle: other 104 % of control | dose: 125.0 mg/kg/injection, schedule: Q01DX009 (ip), vehicle: other 98 % of control | dose: 250.0 mg/kg/injection, schedule: Q01DX009 (ip), vehicle: other 103 % of control

C1CCN(CCC2CCNCC2)C1
inactive: dose: 25.0 mg/kg/injection, schedule: Q01DX009 (ip), vehicle: saline 106 % of control | dose: 25.0 mg/kg/injection, schedule: Q04DX003 (ip), vehicle: saline 97 % of control | [17] 95 % of control | dose: 50.0 mg/kg/injection, schedule: Q04DX003 (ip), vehicle: saline 97 % of control | [18] 106 % of control | [19] 96 % of control and 100 % of control

Cc1cc(C)n(/N=C/c2cccc(Cl)c2)c(=O)c1C#N
inactive: [11] 88 % of control | [12] 95 % of control | [13] 87 % of control | [14] 90 % of control | [15] 92 % of control | [16] 90 % of control

O=S(=O)(O)CCc1ccccn1
inactive: [17] 106 % of control | [18] 109 % of control | [20] 92 % of control

COc1cccc(CCNC(=O)CCN2C(=O)c3ccccc3C2=O)c1
inactive: dose: 50.0 mg/kg/injection, schedule: Q01DX001 (ip), vehicle: carboxymethylcellulose (CMC) 94 % of control | [21] 96 % of control | [22] 100 % of control | [23] 100 % of control

CCC(O)C[As](=O)(O)c1ccccc1 (stereo not given)
inactive: dose: 1.56 mg/kg/injection, schedule: Q04DX003 (ip), vehicle: saline 94 % of control | dose: 3.13 mg/kg/injection, schedule: Q04DX003 (ip), vehicle: saline 105 % of control | dose: 6.25 mg/kg/injection, schedule: Q04DX003 (ip), vehicle: saline 96 % of control

O=C(O)c1ccc(C(=O)c2ccc([N+](=O)[O-])cc2)cc1
inactive: dose: 25.0 mg/kg/injection, schedule: Q01DX009 (ip), vehicle: carboxymethylcellulose (CMC) 102 % of control and 104 % of control | dose: 50.0 mg/kg/injection, schedule: Q01DX009 (ip), vehicle: carboxymethylcellulose (CMC) 95 % of control and 108 % of control | [21] 92 % of control and 97 % of control | dose: 100.0 mg/kg/injection, schedule: Q01DX009 (ip), vehicle: carboxymethylcellulose (CMC) 95 % of control and 102 % of control | dose: 100.0 mg/kg/injection, schedule: Q04DX002 (ip), vehicle: carboxymethylcellulose (CMC) 101 % of control and 102 % of control | dose: 100.0 mg/kg/injection, schedule: Q04DX003 (ip), vehicle: carboxymethylcellulose (CMC) 105 % of control and 114 % of control | [22] 98 % of control and 100 % of control | dose: 200.0 mg/kg/injection, schedule: Q04DX002 (ip), vehicle: carboxymethylcellulose (CMC) 93 % of control and 95 % of control | dose: 200.0 mg/kg/injection, schedule: Q04DX003 (ip), vehicle: carboxymethylcellulose (CMC) 97 % of control and 98 % of control | [23] 93 % of control and 100 % of control | dose: 400.0 mg/kg/injection, schedule: Q01DX009 (ip), vehicle: carboxymethylcellulose (CMC) 104 % of control | dose: 400.0 mg/kg/injection, schedule: Q04DX002 (ip), vehicle: carboxymethylcellulose (CMC) 95 % of control and 98 % of control | dose: 400.0 mg/kg/injection, schedule: Q04DX003 (ip), vehicle: carboxymethylcellulose (CMC) 96 % of control and 88 % of control

S=C1SCN(C(c2ccccc2)c2ccccc2)CN1C(c1ccccc1)c1ccccc1
inactive: [12] 95 % of control | [14] 94 % of control | [16] 96 % of control

O=c1[nH]cnc2ccnn12
inactive: [17] 104 % of control | [18] 107 % of control | [19] 97 % of control | [24] 92 % of control

O=C(Cl)C1CC2c3ccccc3C1([N+](=O)[O-])c1ccccc12 (stereo not given)
inactive: [1] 109 % of control | [2] 102 % of control | [3] 104 % of control | [7] 112 % of control and 91 % of control | [4] 104 % of control | [8] 101 % of control | [5] 98 % of control

CN1CCCCCC1=O
inactive: [19] 100 % of control | [24] 111 % of control | dose: 400.0 mg/kg/injection, schedule: Q04DX003 (ip), vehicle: saline 101 % of control

CSCCCCCCSC
inactive: [17] 101 % of control | [18] 96 % of control | [20] 90 % of control

Cc1c(Cl)cccc1NC(=O)c1cccc([N+](=O)[O-])c1
inactive: [2] 103 % of control | [3] 96 % of control | [7] 95 % of control | [4] 93 % of control | [8] 94 % of control | [5] 91 % of control
